# Results reported in patent publication US20180272034A1, “USE OF CSA COMPOUNDS TO PREVENT MICROBIAL BUILD-UP OR FOULING OF MEDICAL IMPLANTS” (BRIGHAM YOUNG UNIVERSITY, priority 2017, published 2018).
# Values joined by “and” are separate entries in the source; they are usually repeats but may differ in a detail not shown here. Equal values may be shown once.
# Columns and labels:
# PA01 = assay: Drip flow system, whole coated endotracheal tubes; format: cell-based, Pseudomonas aeruginosa; settings: hydrogel 10% CSA-131 2-NDSA; three inoculations of 10^7 CFU, 24 h; detection limit 10 CFU
# Experimental: At eight-hour intervals, bacteria (PA01, 10^6 CFU/mL) were passed through the tubes for 10 min (total of 10^7 CFU) at each interval. At a time point 30 min after introduction of bacteria, the growth medium flowing through the tubes was collected and plated to determine the number of bacterial colonies present. After 24 h, tubes were removed and sections (5 mm) were cut from above and below the cuff. These were sonicated in a neutralizing medium and the resulting solution was plated to quantify bacterial biofilm growth.
# [1] = tested on: methicillin-resistant Staphylococcus aureus (MRSA); assay: Coated endotracheal tube segments, daily re-inoculation, growth in medium; format: cell-based; design: key to bacterial growth in medium, Day 1 / bacterial growth in medium, Day 10 / bacterial growth in medium, Day 2 / bacterial growth in medium, Day 3 / bacterial growth in medium, Day 4 / bacterial growth in medium, Day 5 / bacterial growth in medium, Day 6 / bacterial growth in medium, Day 7 / bacterial growth in medium, Day 8 / bacterial growth in medium, Day 9: N=no growth; G=growth
# Experimental: (§1) A hydrogel coating containing 10% CSA-131 HCl and 3% citric acid, relative to the hydrogel solids, was tested for antibacterial efficacy using endotracheal tube segments (5.0 mm). These tube segments (surface area of ca. 1.5 cm^2) were dip coated and cured to give coatings of approximately 10 microns. Coated tube segments were washed in phosphate buffered saline (PBS) for varied amounts of time before testing. Antibacterial testing involved immersing tube segments in 10% TSB in PBS (1.0 mL) and inoculating with Pseudomonas aeruginosa (PA01)@10^6 colony forming units (CFU). Samples were incubated for 24 h, and bacterial growth in the medium was assayed visually (i.e., turbidity in the medium is caused by unrestricted bacterial growth). […] And the converse is true: if growth is supported in the medium that the device is colonized, to some extent.
# (§2) After 24 h of incubation, tube segments were immersed in fresh growth media (10% TSB in PBS, 1 mL), re-inoculated, and incubated. […] Experiments were performed in triplicate. N=no growth, G=growth.
# (§3) Antibacterial activity of a hydrogel coating (ca. 10 microns) containing CSA-131 2-NDSA (10% by weight relative to hydrogel solids) was determined as described in Example 8 using methicillin-resistant Staphylococcus aureus (MRSA) and Pseudomonas aeruginosa (PA01).
# [2] = tested on: Pseudomonas aeruginosa (PA01); assay: as above; format: cell-based; design: key to bacterial growth in medium, Day 1 / bacterial growth in medium, Day 2 / bacterial growth in medium, Day 3 / bacterial growth in medium, Day 4 / bacterial growth in medium, Day 5 / bacterial growth in medium, Day 6 / bacterial growth in medium, Day 7 / bacterial growth in medium, Day 10 / bacterial growth in medium, Day 8 / bacterial growth in medium, Day 9: N=no growth; G=growth
# Experimental: as §1, §2, §3
# [3] = Hydrogel coating stability and reaction with ethylene oxide (ETO)
# Experimental: Releases of CSA-131 from hydrogel-based coatings were investigated, including examining coating stability and reaction of the coating with ethylene oxide (ETO) during sterilization processes. […] To mask this reactivity, coatings were prepared including varies percentages of citric acid to form non-volatile salts of the CSA compound.
# Using a jet mill (Fluid Energy), CSA-131 2-NDSA was milled to an average particle size of 200 nm.
# [4] = three replicates, hydrogel coating 10% CSA-131 2-NDSA, re-inoculated every 24 h
# [5] = PA01, three replicates, hydrogel coating 10% CSA-131 2-NDSA, re-inoculated every 24 h
compound,measurement,setting,value
CCCCCCCCCCCCNCCC[C@@H](C)[C@H]1CC[C@H]2[C@@H]3[C@H](OCCCN)C[C@@H]4C[C@H](OCCCN)CC[C@]4(C)[C@H]3C[C@H](OCCCN)[C@]12C.O=S(=O)(O)c1cccc2c(S(=O)(=O)O)cccc12.O=S(=O)(O)c1cccc2c(S(=O)(=O)O)cccc12 [CSA-131 2-NDSA],bacteria from sonication of tube sections (biofilm),PA01,no bacteria were detected
same,bacteria in collected effluent from tubes,PA01,no bacteria were detected
same,time coating prevented bacterial growth,"[1]; hydrogel coating ca. 10 microns, 10% CSA-131 2-NDSA",eight
same,"bacterial growth in medium, Day 1",[1]; [4],N
same,"bacterial growth in medium, Day 2",[1]; [4],N
same,"bacterial growth in medium, Day 3",[1]; [4],N
same,"bacterial growth in medium, Day 4",[1]; [4],N
same,"bacterial growth in medium, Day 5",[1]; [4],N
same,"bacterial growth in medium, Day 6",[1]; [4],N
same,"bacterial growth in medium, Day 7",[1]; [4],G and N (2×)
same,"bacterial growth in medium, Day 8",[1]; [4],G and N (2×)
same,"bacterial growth in medium, Day 9",[1]; [4],G
same,"bacterial growth in medium, Day 10",[1]; [4],G
same,"bacterial growth in medium, Day 1",[2]; [5],N
same,"bacterial growth in medium, Day 2",[2]; [5],N
same,"bacterial growth in medium, Day 3",[2]; [5],N
same,"bacterial growth in medium, Day 4",[2]; [5],N
same,"bacterial growth in medium, Day 5",[2]; [5],N
same,"bacterial growth in medium, Day 6",[2]; [5],N
same,"bacterial growth in medium, Day 7",[2]; [5],N
same,"bacterial growth in medium, Day 8",[2]; [5],G
same,"bacterial growth in medium, Day 9",[2]; [5],G
same,"bacterial growth in medium, Day 10",[2]; [5],G
same,time coating prevented bacterial growth,"[2]; PA01, hydrogel coating ca. 10 microns, 10% CSA-131 2-NDSA",seven
same,coating stability,[3]; CSA-131 2-NDSA in hydrogel coating,stable coatings
same,reaction with ETO during sterilization,[3]; CSA-131 2-NDSA particles (200 nm) in hydrogel coating,did not react with ETO
